# Calls of active or inactive are those of the source. The calls are words filed in the database; no cut-off is given here.
# Assays:
# [1] = molecular target: Alpha-2C adrenergic receptor (Homo sapiens, UniProt P18825); assay: GPCRScan assay: inhibition of Alpha2C; design: radioligand conc. used [nm] 0.5 – 1.0, parental cells stable MDCK
# [2] = molecular target: Amyloid-beta precursor protein (Homo sapiens, UniProt P05067); assay: Aβ42 inhibition assay
# [3] = test system: Tyrosine-protein kinase ABL1 (Homo sapiens), P00519 [H396P]; conditions: Compound concentration 1000.0 nM
# [4] = test system: Tyrosine-protein kinase ABL1 (Homo sapiens), P00519 [T315I]; conditions: Compound concentration 1000.0 nM
# [5] = molecular target: Activin receptor type-1 (Homo sapiens) (UniProt Q04771); conditions: Compound concentration 1000.0 nM
# [6] = molecular target: Aurora kinase C (Homo sapiens) (UniProt Q9UQB9); conditions: Compound concentration 1000.0 nM
# [7] = molecular target: Serine/threonine-protein kinase BRSK2 (Homo sapiens) (UniProt Q8IWQ3); conditions: Compound concentration 1000.0 nM
# [8] = molecular target: Calcium/calmodulin-dependent protein kinase type 1D (Homo sapiens) (UniProt Q8IU85); conditions: Compound concentration 1000.0 nM
# [9] = molecular target: Cyclin-dependent kinase 8 (Homo sapiens) (UniProt P49336); conditions: Compound concentration 1000.0 nM
# [10] = molecular target: Citron Rho-interacting kinase (Homo sapiens) (UniProt O14578); conditions: Compound concentration 1000.0 nM
# [11] = molecular target: Dual specificity protein kinase CLK3 (Homo sapiens) (UniProt P49761); conditions: Compound concentration 1000.0 nM
# [12] = molecular target: Death-associated protein kinase 3 (Homo sapiens) (UniProt O43293); conditions: Compound concentration 1000.0 nM
# [13] = molecular target: Discoidin domain-containing receptor 2 (Homo sapiens) (UniProt Q16832); conditions: Compound concentration 1000.0 nM
# [14] = molecular target: Dual specificity tyrosine-phosphorylation-regulated kinase 1B (Homo sapiens) (UniProt Q9Y463); conditions: Compound concentration 1000.0 nM
# [15] = test system: Epidermal growth factor receptor (Homo sapiens), P00533 [UNDEFINED MUTATION]; conditions: Compound concentration 1000.0 nM
# [16] = molecular target: Ephrin type-A receptor 1 (Homo sapiens) (UniProt P21709); conditions: Compound concentration 1000.0 nM
# [17] = molecular target: Tyrosine-protein kinase Fgr (Homo sapiens) (UniProt P09769); conditions: Compound concentration 1000.0 nM
# [18] = molecular target: Receptor-type tyrosine-protein kinase FLT3 (Homo sapiens) (UniProt P36888); conditions: Compound concentration 1000.0 nM
# [19] = test system: Receptor-type tyrosine-protein kinase FLT3 (Homo sapiens), P36888 [UNDEFINED MUTATION]; conditions: Compound concentration 1000.0 nM
# [20] = molecular target: Glycogen synthase kinase-3 alpha (Homo sapiens) (UniProt P49840); conditions: Compound concentration 1000.0 nM
# [21] = molecular target: Homeodomain-interacting protein kinase 3 (Homo sapiens) (UniProt Q9H422); conditions: Compound concentration 1000.0 nM
# [22] = test system: Mast/stem cell growth factor receptor Kit (Homo sapiens), P10721 [V559D]; conditions: Compound concentration 1000.0 nM
# [23] = test system: Leucine-rich repeat serine/threonine-protein kinase 2 (Homo sapiens), Q5S007 [G2019S]; conditions: Compound concentration 1000.0 nM
# [24] = molecular target: Dual specificity mitogen-activated protein kinase kinase 6 (Homo sapiens) (UniProt P52564); conditions: Compound concentration 1000.0 nM
# [25] = molecular target: Misshapen-like kinase 1 (Homo sapiens) (UniProt Q8N4C8); conditions: Compound concentration 1000.0 nM
# [26] = molecular target: Serine/threonine-protein kinase 3 (Homo sapiens) (UniProt Q13188); conditions: Compound concentration 1000.0 nM
# [27] = molecular target: Serine/threonine-protein kinase 24 (Homo sapiens) (UniProt Q9Y6E0); conditions: Compound concentration 1000.0 nM
# [28] = molecular target: Myosin light chain kinase 2, skeletal/cardiac muscle (Homo sapiens) (UniProt Q9H1R3); conditions: Compound concentration 1000.0 nM
# [29] = molecular target: Myosin-IIIa (Homo sapiens) (UniProt Q8NEV4); conditions: Compound concentration 1000.0 nM
# [30] = molecular target: Myosin-IIIb (Homo sapiens) (UniProt Q8WXR4); conditions: Compound concentration 1000.0 nM
# [31] = molecular target: Mitogen-activated protein kinase kinase kinase 14 (Homo sapiens) (UniProt Q99558); conditions: Compound concentration 1000.0 nM
# [32] = molecular target: Mitogen-activated protein kinase 14 (Homo sapiens) (UniProt Q16539); conditions: Compound concentration 1000.0 nM
# [33] = molecular target: cAMP-dependent protein kinase catalytic subunit alpha (Homo sapiens) (UniProt P17612); conditions: Compound concentration 1000.0 nM
# [34] = molecular target: Serine/threonine-protein kinase PLK3 (Homo sapiens) (UniProt Q9H4B4); conditions: Compound concentration 1000.0 nM
# [35] = molecular target: Protein kinase C theta type (Homo sapiens) (UniProt Q04759); conditions: Compound concentration 1000.0 nM
# [36] = molecular target: Serine/threonine-protein kinase PRP4 homolog (Homo sapiens) (UniProt Q13523); conditions: Compound concentration 1000.0 nM
# [37] = molecular target: Serine/threonine-protein kinase RIO3 (Homo sapiens) (UniProt O14730); conditions: Compound concentration 1000.0 nM
# [38] = molecular target: STE20/SPS1-related proline-alanine-rich protein kinase (Homo sapiens) (UniProt Q9UEW8); conditions: Compound concentration 1000.0 nM
# [39] = molecular target: Testis-specific serine/threonine-protein kinase 3 (Homo sapiens) (UniProt Q96PN8); conditions: Compound concentration 1000.0 nM
# [40] = molecular target: Tyrosine-protein kinase receptor TYRO3 (Homo sapiens) (UniProt Q06418); conditions: Compound concentration 1000.0 nM
# [41] = molecular target: Serine/threonine-protein kinase ULK1 (Homo sapiens) (UniProt O75385); conditions: Compound concentration 1000.0 nM
# [42] = molecular target: Serine/threonine-protein kinase VRK2 (Homo sapiens) (UniProt Q86Y07); conditions: Compound concentration 1000.0 nM
# [43] = molecular target: Serine/threonine-protein kinase 32C (Homo sapiens) (UniProt Q86UX6); conditions: Compound concentration 1000.0 nM
# [44] = molecular target: Serine/threonine-protein kinase 25 (Homo sapiens) (UniProt O00506); conditions: Compound concentration 1000.0 nM
# [45] = molecular target: Tyrosine-protein kinase ZAP-70 (Homo sapiens) (UniProt P43403); conditions: Compound concentration 1000.0 nM
# Serine/threonine-protein kinase PLK3 (Homo sapiens), sequence (Q9H4B4 whole entry, looked up): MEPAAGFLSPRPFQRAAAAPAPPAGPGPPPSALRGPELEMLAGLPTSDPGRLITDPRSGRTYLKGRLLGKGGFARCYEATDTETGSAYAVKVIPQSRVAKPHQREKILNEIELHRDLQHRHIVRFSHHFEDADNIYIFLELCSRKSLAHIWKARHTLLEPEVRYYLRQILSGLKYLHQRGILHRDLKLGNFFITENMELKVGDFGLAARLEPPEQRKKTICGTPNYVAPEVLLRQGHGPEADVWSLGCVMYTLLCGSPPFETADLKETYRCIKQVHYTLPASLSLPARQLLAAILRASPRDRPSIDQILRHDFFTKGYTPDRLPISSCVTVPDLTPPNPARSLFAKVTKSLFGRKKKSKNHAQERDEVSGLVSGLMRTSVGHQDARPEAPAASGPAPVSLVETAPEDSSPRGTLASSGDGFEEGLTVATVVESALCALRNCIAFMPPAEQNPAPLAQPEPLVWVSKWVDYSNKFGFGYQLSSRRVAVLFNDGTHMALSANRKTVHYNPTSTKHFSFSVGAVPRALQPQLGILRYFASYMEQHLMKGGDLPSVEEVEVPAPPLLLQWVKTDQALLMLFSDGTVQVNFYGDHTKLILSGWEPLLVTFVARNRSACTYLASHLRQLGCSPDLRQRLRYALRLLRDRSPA
# Misshapen-like kinase 1 (Homo sapiens), sequence (Q8N4C8 whole entry, looked up): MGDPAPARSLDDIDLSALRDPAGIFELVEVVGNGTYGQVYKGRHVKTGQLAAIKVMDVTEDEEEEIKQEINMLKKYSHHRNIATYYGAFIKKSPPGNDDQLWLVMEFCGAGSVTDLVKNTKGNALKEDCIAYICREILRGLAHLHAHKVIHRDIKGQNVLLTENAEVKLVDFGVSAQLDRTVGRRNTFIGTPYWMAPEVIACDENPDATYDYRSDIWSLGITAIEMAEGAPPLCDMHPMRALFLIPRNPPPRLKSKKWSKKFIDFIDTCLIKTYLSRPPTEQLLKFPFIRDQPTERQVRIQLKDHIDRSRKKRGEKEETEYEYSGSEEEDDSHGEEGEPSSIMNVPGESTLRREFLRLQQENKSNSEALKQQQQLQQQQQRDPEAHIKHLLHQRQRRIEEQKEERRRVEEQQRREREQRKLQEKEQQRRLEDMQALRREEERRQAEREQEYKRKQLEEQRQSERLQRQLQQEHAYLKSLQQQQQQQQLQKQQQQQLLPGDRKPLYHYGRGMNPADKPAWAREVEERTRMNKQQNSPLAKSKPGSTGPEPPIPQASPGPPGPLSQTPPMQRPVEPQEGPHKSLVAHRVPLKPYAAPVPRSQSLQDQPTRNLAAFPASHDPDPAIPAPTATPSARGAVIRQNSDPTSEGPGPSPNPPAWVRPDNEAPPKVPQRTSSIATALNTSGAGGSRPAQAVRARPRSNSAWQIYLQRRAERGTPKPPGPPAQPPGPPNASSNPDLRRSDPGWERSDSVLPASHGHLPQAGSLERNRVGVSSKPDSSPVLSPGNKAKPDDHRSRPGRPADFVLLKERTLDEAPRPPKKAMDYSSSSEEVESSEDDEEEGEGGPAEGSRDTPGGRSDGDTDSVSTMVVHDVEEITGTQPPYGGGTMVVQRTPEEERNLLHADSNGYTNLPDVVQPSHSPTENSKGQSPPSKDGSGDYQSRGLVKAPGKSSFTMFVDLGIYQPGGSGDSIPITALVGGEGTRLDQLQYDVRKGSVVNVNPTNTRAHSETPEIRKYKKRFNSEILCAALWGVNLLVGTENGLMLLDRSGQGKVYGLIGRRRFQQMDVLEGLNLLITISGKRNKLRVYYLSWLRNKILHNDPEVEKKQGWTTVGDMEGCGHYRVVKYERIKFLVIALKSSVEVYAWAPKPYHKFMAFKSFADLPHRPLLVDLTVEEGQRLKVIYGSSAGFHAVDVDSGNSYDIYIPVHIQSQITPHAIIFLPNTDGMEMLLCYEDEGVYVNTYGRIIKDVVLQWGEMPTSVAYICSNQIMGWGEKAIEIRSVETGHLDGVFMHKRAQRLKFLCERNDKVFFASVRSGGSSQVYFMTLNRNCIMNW
# Alpha-2C adrenergic receptor, sequence (P18825 whole entry): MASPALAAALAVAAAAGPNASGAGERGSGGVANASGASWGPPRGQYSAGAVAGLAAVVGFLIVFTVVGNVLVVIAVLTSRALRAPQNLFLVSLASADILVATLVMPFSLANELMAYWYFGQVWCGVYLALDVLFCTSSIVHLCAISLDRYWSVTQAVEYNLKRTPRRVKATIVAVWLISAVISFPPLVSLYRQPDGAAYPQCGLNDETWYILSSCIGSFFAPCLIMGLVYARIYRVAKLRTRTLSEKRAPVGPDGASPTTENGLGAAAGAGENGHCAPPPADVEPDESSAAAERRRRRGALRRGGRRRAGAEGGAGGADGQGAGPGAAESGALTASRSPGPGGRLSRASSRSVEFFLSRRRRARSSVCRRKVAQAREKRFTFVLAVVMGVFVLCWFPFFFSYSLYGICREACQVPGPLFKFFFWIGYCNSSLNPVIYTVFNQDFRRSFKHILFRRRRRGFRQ
# Serine/threonine-protein kinase BRSK2 (Homo sapiens), sequence (Q8IWQ3 whole entry): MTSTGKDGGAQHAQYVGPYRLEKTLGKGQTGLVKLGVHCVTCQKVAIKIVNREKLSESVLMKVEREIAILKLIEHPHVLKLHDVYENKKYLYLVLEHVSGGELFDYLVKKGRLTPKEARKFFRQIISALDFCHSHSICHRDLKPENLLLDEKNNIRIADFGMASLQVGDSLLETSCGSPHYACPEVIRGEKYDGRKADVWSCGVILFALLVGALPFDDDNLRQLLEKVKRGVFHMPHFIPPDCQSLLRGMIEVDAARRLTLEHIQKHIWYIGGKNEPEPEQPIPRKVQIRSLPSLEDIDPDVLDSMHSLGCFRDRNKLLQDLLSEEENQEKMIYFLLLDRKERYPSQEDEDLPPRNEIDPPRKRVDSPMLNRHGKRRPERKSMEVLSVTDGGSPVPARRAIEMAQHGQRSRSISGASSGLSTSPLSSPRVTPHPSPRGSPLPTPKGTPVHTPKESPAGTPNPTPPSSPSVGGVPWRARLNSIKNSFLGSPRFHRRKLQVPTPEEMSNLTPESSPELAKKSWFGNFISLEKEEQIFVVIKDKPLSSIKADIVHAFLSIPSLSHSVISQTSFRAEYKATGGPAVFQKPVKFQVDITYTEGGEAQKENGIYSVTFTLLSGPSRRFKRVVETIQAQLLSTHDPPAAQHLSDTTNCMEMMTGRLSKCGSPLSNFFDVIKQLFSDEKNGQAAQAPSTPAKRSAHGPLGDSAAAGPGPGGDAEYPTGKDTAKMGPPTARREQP
# Epidermal growth factor receptor (Homo sapiens), P00533 [UNDEFINED MUTATION], sequence (P00533 whole entry, looked up, change not shown): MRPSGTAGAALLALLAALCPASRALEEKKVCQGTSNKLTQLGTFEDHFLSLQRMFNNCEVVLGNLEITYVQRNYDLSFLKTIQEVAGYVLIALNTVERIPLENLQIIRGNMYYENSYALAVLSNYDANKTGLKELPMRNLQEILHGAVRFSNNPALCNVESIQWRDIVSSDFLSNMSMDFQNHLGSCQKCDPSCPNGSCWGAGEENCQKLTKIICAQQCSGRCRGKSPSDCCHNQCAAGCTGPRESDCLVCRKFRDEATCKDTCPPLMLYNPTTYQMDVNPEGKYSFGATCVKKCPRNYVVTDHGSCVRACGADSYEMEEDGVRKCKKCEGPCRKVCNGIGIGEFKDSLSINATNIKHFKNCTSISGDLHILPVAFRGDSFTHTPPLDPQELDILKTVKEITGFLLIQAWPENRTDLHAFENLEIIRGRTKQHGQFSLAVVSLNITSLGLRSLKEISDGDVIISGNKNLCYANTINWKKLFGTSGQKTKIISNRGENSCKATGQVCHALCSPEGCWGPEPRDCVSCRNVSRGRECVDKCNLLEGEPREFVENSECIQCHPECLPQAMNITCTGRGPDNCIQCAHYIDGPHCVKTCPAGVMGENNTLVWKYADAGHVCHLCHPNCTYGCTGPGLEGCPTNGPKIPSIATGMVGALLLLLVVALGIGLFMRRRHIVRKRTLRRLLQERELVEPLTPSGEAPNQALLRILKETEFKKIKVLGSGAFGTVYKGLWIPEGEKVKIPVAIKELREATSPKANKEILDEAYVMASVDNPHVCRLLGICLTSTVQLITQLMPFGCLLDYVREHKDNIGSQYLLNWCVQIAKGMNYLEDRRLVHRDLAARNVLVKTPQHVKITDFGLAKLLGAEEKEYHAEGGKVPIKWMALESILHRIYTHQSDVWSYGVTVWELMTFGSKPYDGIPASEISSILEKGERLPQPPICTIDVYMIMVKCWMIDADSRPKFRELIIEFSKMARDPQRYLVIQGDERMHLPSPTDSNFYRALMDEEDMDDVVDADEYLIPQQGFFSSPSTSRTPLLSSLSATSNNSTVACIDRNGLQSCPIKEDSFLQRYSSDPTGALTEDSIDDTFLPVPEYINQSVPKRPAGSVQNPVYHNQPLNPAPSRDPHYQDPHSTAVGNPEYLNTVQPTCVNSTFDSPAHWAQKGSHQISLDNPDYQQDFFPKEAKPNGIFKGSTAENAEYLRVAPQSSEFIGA
# Serine/threonine-protein kinase VRK2 (Homo sapiens), sequence (Q86Y07 whole entry): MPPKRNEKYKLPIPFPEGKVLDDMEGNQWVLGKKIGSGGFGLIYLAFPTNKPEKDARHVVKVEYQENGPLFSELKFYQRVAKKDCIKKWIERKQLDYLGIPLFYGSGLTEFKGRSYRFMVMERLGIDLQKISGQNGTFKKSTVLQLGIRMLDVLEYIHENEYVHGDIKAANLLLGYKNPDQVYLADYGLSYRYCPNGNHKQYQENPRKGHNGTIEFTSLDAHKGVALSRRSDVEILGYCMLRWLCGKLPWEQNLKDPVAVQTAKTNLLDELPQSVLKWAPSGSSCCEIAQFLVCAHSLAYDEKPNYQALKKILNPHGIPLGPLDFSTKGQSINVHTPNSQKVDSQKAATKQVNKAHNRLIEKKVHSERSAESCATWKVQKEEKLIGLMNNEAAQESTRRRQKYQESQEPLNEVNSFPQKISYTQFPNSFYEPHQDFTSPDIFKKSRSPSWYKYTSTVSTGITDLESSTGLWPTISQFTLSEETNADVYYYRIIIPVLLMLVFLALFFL
smiles,measurement,setting,value
CC(C)(C)OC(=O)N1CCCC1CNC1CCC(c2cc(F)ccc2F)(S(=O)(=O)c2ccc(Cl)cc2)CC1 (stereo not given) [GSI-NC],Ki,[1],0.653 µM
O=S(=O)(NC1CCC(c2cc(F)ccc2F)(S(=O)(=O)c2ccc(Cl)cc2)CC1)C(F)(F)F (stereo not given) [MRK-560],IC50,[2],< 0.0005 µM (active)
same,residual activity,[3],100%
same,residual activity,[4],85%
same,residual activity,[5],92%
same,residual activity,[6],94%
same,residual activity,[7],100%
same,residual activity,[8],79%
same,residual activity,[9],100%
same,residual activity,[10],0%
same,residual activity,[11],86%
same,residual activity,[12],97%
same,residual activity,[13],100%
same,residual activity,[14],100%
same,residual activity,[15],100%
same,residual activity,[16],100%
same,residual activity,[17],99%
same,residual activity,[18],100%
same,residual activity,[19],91%
same,residual activity,[20],87%
same,residual activity,[21],100%
same,residual activity,[22],95%
same,residual activity,[23],100%
same,residual activity,[24],100%
same,residual activity,[25],100%
same,residual activity,[26],100%
same,residual activity,[27],99%
same,residual activity,[28],91%
same,residual activity,[29],91%
same,residual activity,[30],100%
same,residual activity,[31],82%
same,residual activity,[32],100%
same,residual activity,[33],100%
same,residual activity,[34],97%
same,residual activity,[35],100%
same,residual activity,[36],100%
same,residual activity,[37],83%
same,residual activity,[38],100%
same,residual activity,[39],88%
same,residual activity,[40],70%
same,residual activity,[41],84%
same,residual activity,[42],100%
same,residual activity,[43],100%
same,residual activity,[44],100%
same,residual activity,[45],100%
